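Tested at 5 concentrations; 48 h exposure; 96-well plates; endpoints linearly interpolated, else capped at highest concentration. The concentration for 50% growth inhibition is given as GI50.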 Activity calls are given as the source filed them. Rule as the data show it: active = GI50 up to about 1.1 µM and inactive = higher.
Tests used:
Assay in all cases: NCI tumour cell line growth inhibition, 48 h
SF-268 = system: SF-268
NCI-H226 = system: NCI-H226
SR = system: SR
TK-10 = system: TK-10
OVCAR-4 = system: OVCAR-4
UACC-257 = system: UACC-257
HCT-116 = system: HCT-116
HCC 2998 = system: HCC 2998
MDA-MB-231 = system: MDA-MB-231
NCI-H460 = system: NCI-H460
ACHN = system: ACHN
OVCAR-5 = system: OVCAR-5
SF-539 = system: SF-539
MOLT-4 = system: MOLT-4
MDA-N = system: MDA-N
UACC-62 = system: UACC-62
Hs-578T = system: Hs-578T
CAKI-1 = system: CAKI-1
SK-OV-3 = system: SK-OV-3
A498 = system: A498

Row | SMILES | GI50 (SF-268) | GI50 (NCI-H226) | GI50 (SR) | GI50 (TK-10) | GI50 (OVCAR-4) | GI50 (UACC-257) | GI50 (HCT-116) | GI50 (HCC 2998) | GI50 (MDA-MB-231) | GI50 (NCI-H460) | GI50 (ACHN) | GI50 (OVCAR-5) | GI50 (SF-539) | GI50 (MOLT-4) | GI50 (MDA-N) | GI50 (UACC-62) | GI50 (Hs-578T) | GI50 (CAKI-1) | GI50 (SK-OV-3) | GI50 (A498)
1 | CCOC(=O)c1nc2ccc(C(F)(F)F)cc2nc1NCc1ccc(F)cc1 | 11.5 µM (inactive) | 29 µM (inactive) | 37.8 µM (inactive) | 27.9 µM (inactive) | 12 µM (inactive) | 27.5 µM (inactive) | 35.9 µM (inactive) | 24.8 µM (inactive) | 32.1 µM (inactive) | 19.2 µM (inactive) | 31.6 µM (inactive) | 64.3 µM (inactive) | 80 µM (inactive) | 42.8 µM (inactive) | 25.4 µM (inactive) | 23.1 µM (inactive) | 21.5 µM (inactive) | 41.5 µM (inactive) | 43 µM (inactive) | 
2 | c1cc(CSP234N5CCN2CCN3CCN4CC5)cc(CSP234N5CCN2CCN3CCN4CC5)c1 | 29.4 µM (inactive) |  | 4.91 µM (inactive) | 26.3 µM (inactive) | 32.9 µM (inactive) | 17 µM (inactive) | > 100 µM (inactive) | 19.3 µM (inactive) | 14.8 µM (inactive) | 26.6 µM (inactive) | 33 µM (inactive) | 86.7 µM (inactive) | 22.9 µM (inactive) | 15.7 µM (inactive) | 28.1 µM (inactive) | 16.8 µM (inactive) | 21.9 µM (inactive) | > 100 µM (inactive) |  | 
3 | O=C(/C=C/c1ccc(O)cc1)c1cc(-c2cc(CCC(=O)c3ccc(O)cc3O)ccc2O)c(O)cc1O | 22.4 µM (inactive) |  | 10.4 µM (inactive) | 18.1 µM (inactive) | 19.7 µM (inactive) | > 50 µM (inactive) | 19.8 µM (inactive) |  | 37.8 µM (inactive) | 23.8 µM (inactive) | > 50 µM (inactive) | > 50 µM (inactive) | 10.8 µM (inactive) | 7.23 µM (inactive) | 19.1 µM (inactive) | 22.8 µM (inactive) | 23.7 µM (inactive) | > 50 µM (inactive) | 16.9 µM (inactive) | 24.8 µM (inactive)
4 | CNC(=O)CCC(NC(C)=O)C(=O)NC(Cc1ccc(NC(=O)CCCCC(C)=O)cc1)C(=O)NC(CCC(=O)NC)C(=O)NC (stereo unspecified) | > 100 µM (inactive) | > 100 µM (inactive) |  | > 100 µM (inactive) | > 100 µM (inactive) |  | > 100 µM (inactive) | > 100 µM (inactive) | > 100 µM (inactive) | > 100 µM (inactive) | > 100 µM (inactive) | > 100 µM (inactive) | > 100 µM (inactive) | > 100 µM (inactive) | > 100 µM (inactive) | > 100 µM (inactive) | 40.2 µM (inactive) | > 100 µM (inactive) | > 100 µM (inactive) | > 100 µM (inactive)
5 | Cc1cccc2[nH]c3c(c(O)cc4[nH]c5cccc(C)c5c(=O)c43)c(=O)c12 | > 10 µM (inactive) | 5.16 µM (inactive) |  | 5.08 µM (inactive) | 4.33 µM (inactive) | 4.55 µM (inactive) | 3.65 µM (inactive) | > 10 µM (inactive) | 8.11 µM (inactive) | 5.57 µM (inactive) | 5.83 µM (inactive) | > 10 µM (inactive) | > 10 µM (inactive) | 3.88 µM (inactive) | > 10 µM (inactive) | > 10 µM (inactive) | 7.19 µM (inactive) | > 10 µM (inactive) | > 10 µM (inactive) | > 10 µM (inactive)
6 | COc1ccc(CCn2ccc(=O)c(O)c2C)cc1OC | 2.37 µM (inactive) |  | 28.4 µM (inactive) | 5.87 µM (inactive) |  | 6.18 µM (inactive) | 37.2 µM (inactive) |  | 1.4 µM (inactive) | 5.81 µM (inactive) | 5.26 µM (inactive) | 26.7 µM (inactive) | 26.2 µM (inactive) | 16 µM (inactive) | 19.2 µM (inactive) |  | < 0.01 µM (active) | 2.48 µM (inactive) | 21.2 µM (inactive) | 

Source: ChEMBL document CHEMBL1201862, “PubChem BioAssay data set” (2004)
